Experimental data published in patent US6737383B1, “Herbicidal oxadiazolidines” (priority 1999, dated 2004).

Columns and labels:
bedstraw = test: Test B pre/postemergence bedstraw; format: in vivo, Galium aparine
How it was run: (§1)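 Response is a visual 0-to-10 score relative to untreated plants, where 0 means no effect and 10 means complete control, taken twelve to sixteen days after application. Treatments went onto soil at planting and onto foliage of 1- to 4-leaf plants, using a surfactant-containing non-phytotoxic solvent.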

blackgrass = test: Test B pre/postemergence blackgrass; format: in vivo, Alopecurus myosuroides
How it was run: as §1

surinam grass = test: Test B pre/postemergence surinam grass; format: in vivo, Brachiaria decumbens
How it was run: as §1

cocklebur = test: Test B pre/postemergence cocklebur; format: in vivo, Xanthium strumarium
How it was run: as §1

corn = test: Test B pre/postemergence corn; format: in vivo, Zea mays
How it was run: as §1

crabgrass = test: Test B pre/postemergence crabgrass; format: in vivo, Digitaria sanguinalis
How it was run: as §1

giant foxtail = test: Test B pre/postemergence giant foxtail; format: in vivo, Setaria faberii
How it was run: as §1

morningglory = test: Test B pre/postemergence morningglory; format: in vivo, Ipomoea hederacea
How it was run: as §1

pigweed = test: Test B pre/postemergence pigweed; format: in vivo, Amaranthus retroflexus
How it was run: as §1

rape = test: Test B pre/postemergence rape; format: in vivo, Brassica napus
How it was run: as §1

soybean = test: Test B pre/postemergence soybean; format: in vivo, Glycine max
How it was run: as §1

sugar beet = test: Test B pre/postemergence sugar beet; format: in vivo, Beta vulgaris
How it was run: as §1

velvetleaf = test: Test B pre/postemergence velvetleaf; format: in vivo, Abutilon theophrasti
How it was run: as §1

wheat = test: Test B pre/postemergence wheat; format: in vivo, Triticum aestivum
How it was run: as §1

wild oat = test: Test B pre/postemergence wild oat; format: in vivo, Avena fatua
How it was run: as §1

purple nutsedge = test: Test B pre/postemergence purple nutsedge; format: in vivo, Cyperus rotundus
How it was run: as §1

[1] = Postemergence, Rate 125 g/ha, scale of 0 to 10 where 0 is no effect and 10 is complete control
[2] = Preemergence, Rate 62 g/ha, scale of 0 to 10 where 0 is no effect and 10 is complete control
[3] = Preemergence, Rate 125 g/ha, 0 is no effect, 10 is complete control
[4] = Preemergence, Rate 250 g/ha, scale 0 to 10, 0 is no effect, 10 is complete control
[5] = Preemergence, Rate 500 g/ha, scale 0 to 10 (0 no effect, 10 complete control)
[6] = Rate 62 g/ha, Postemergence, scale of 0 to 10 where 0 is no effect and 10 is complete control
[7] = Rate 250 g/ha, Postemergence, scale 0 to 10, 0 is no effect, 10 is complete control
[8] = Rate 500 g/ha, Postemergence, scale 0 to 10

Cc1ccccc1-n1c(=O)on(C(=O)N(c2ccc(Br)cc2)C(C)C)c1=O [Compound 175]
Bedstraw plant response rating (bedstraw; [1]): 0 | Bedstraw plant response rating (bedstraw; [2]): 0 | Bedstraw plant response rating (0 to 10 scale) (bedstraw; [3]): 2 | Bedstraw plant response rating (bedstraw; [4]): 9 | Bedstraw plant response rating (bedstraw; [5]): 9 | Bedstraw plant response rating (bedstraw; [6]): 0 | Plant response rating, Bedstraw (bedstraw; [7]): 0 | Bedstraw plant response rating (bedstraw; [8]): 0 | Blackgrass plant response rating (blackgrass; [1]): 0 | Blackgrass plant response rating (blackgrass; [2]): 0 | Blackgrass plant response rating (0 to 10 scale) (blackgrass; [3]): 0 | Blackgrass plant response rating (blackgrass; [4]): 0 | Blackgrass plant response rating (blackgrass; [5]): 0 | Blackgrass plant response rating (blackgrass; [6]): 0 | Plant response rating, Blackgrass (blackgrass; [7]): 0 | Blackgrass plant response rating (blackgrass; [8]): 0 | B. signalgrass plant response rating (surinam grass; [1]): 0 | B. signalgrass plant response rating (surinam grass; [2]): 0 | B. signalgrass plant response rating (0 to 10 scale) (surinam grass; [3]): 0 | B. signalgrass plant response rating (surinam grass; [4]): 0 | B. signalgrass plant response rating (surinam grass; [5]): 0 | B. signalgrass plant response rating (surinam grass; [6]): 0 | Plant response rating, B. signalgrass (surinam grass; [7]): 0 | B. signalgrass plant response rating (surinam grass; Rate 500 g/ha, Postemergence, scale 0 to 10, 0 no effect, 10 complete control): 0 | Cocklebur plant response rating (cocklebur; [1]): 0 | Cocklebur plant response rating (cocklebur; [2]): 0 | Cocklebur plant response rating (0 to 10 scale) (cocklebur; [3]): 0 | Cocklebur plant response rating (cocklebur; [4]): 0 | Cocklebur plant response rating (cocklebur; [5]): 0 | Cocklebur plant response rating (cocklebur; [6]): 0 | Plant response rating, Cocklebur (cocklebur; [7]): 2 | Cocklebur plant response rating (cocklebur; [8]): 3 | Corn plant response rating (corn; [1]): 0 | Corn plant response rating (corn; [2]): 0 | Corn plant response rating (0 to 10 scale) (corn; [3]): 0 | Corn plant response rating (corn; [4]): 0 | Corn plant response rating (corn; [5]): 0 | Corn plant response rating (corn; [6]): 0 | Plant response rating, Corn (corn; [7]): 0 | Corn plant response rating (corn; [8]): 0 | Crabgrass plant response rating (crabgrass; [1]): 0 | Crabgrass plant response rating (crabgrass; [2]): 5 | Crabgrass plant response rating (0 to 10 scale) (crabgrass; [3]): 6 | Crabgrass plant response rating (crabgrass; [4]): 6 | Crabgrass plant response rating (crabgrass; [5]): 8 | Crabgrass plant response rating (crabgrass; [6]): 0 | Plant response rating, Crabgrass (crabgrass; [7]): 0 | Crabgrass plant response rating (crabgrass; [8]): 0 | Giant foxtail plant response rating (giant foxtail; [1]): 0 | Giant foxtail plant response rating (giant foxtail; [2]): 5 | Giant foxtail plant response rating (0 to 10 scale) (giant foxtail; [3]): 7 | Giant foxtail plant response rating (giant foxtail; [4]): 8 | Giant foxtail plant response rating (giant foxtail; [5]): 8 | Giant foxtail plant response rating (giant foxtail; [6]): 0 | Plant response rating, Giant foxtail (giant foxtail; [7]): 0 | Giant foxtail plant response rating (giant foxtail; [8]): 0 | Morningglory plant response rating (morningglory; [1]): 1 | Morningglory plant response rating (morningglory; [2]): 0 | Morningglory plant response rating (0 to 10 scale) (morningglory; [3]): 0 | Morningglory plant response rating (morningglory; [4]): 0 | Morningglory plant response rating (morningglory; [5]): 0 | Morningglory plant response rating (morningglory; [6]): 1 | Plant response rating, Morningglory (morningglory; [7]): 3 | Morningglory plant response rating (morningglory; [8]): 4 | Redroot pigweed plant response rating (pigweed; [1]): 0 | Redroot pigweed plant response rating (pigweed; [2]): 0 | Redroot pigweed plant response rating (0 to 10 scale) (pigweed; [3]): 0 | Redroot pigweed plant response rating (pigweed; [4]): 0 | Redroot pigweed plant response rating (pigweed; [5]): 0 | Redroot pigweed plant response rating (pigweed; [6]): 0 | Plant response rating, Redroot pigweed (pigweed; [7]): 0 | Redroot pigweed plant response rating (pigweed; [8]): 0 | Rape plant response rating (rape; [1]): 0 | Rape plant response rating (rape; [2]): 0 | Rape plant response rating (0 to 10 scale) (rape; [3]): 0 | Rape plant response rating (rape; [4]): 0 | Rape plant response rating (rape; [5]): 0 | Rape plant response rating (rape; [6]): 0 | Plant response rating, Rape (rape; [7]): 0 | Rape plant response rating (rape; [8]): 0 | Soybean plant response rating (soybean; [1]): 1 | Soybean plant response rating (soybean; [2]): 0 | Soybean plant response rating (0 to 10 scale) (soybean; [3]): 0 | Soybean plant response rating (soybean; [4]): 0 | Soybean plant response rating (soybean; [5]): 0 | Soybean plant response rating (soybean; [6]): 1 | Plant response rating, Soybean (soybean; [7]): 1 | Soybean plant response rating (soybean; [8]): 1 | Sugarbeets plant response rating (sugar beet; [1]): 0 | Sugarbeets plant response rating (sugar beet; [2]): 0 | Sugarbeets plant response rating (0 to 10 scale) (sugar beet; [3]): 0 | Sugarbeets plant response rating (sugar beet; [4]): 0 | Sugarbeets plant response rating (sugar beet; [5]): 0 | Sugarbeets plant response rating (sugar beet; [6]): 0 | Plant response rating, Sugarbeets (sugar beet; [7]): 0 | Sugarbeets plant response rating (sugar beet; [8]): 0 | Velvetleaf plant response rating (velvetleaf; [2]): 0 | Velvetleaf plant response rating (0 to 10 scale) (velvetleaf; [3]): 0 | Velvetleaf plant response rating (velvetleaf; [4]): 0 | Velvetleaf plant response rating (velvetleaf; [5]): 0 | Plant response rating, Velvetleaf (velvetleaf; [7]): 3 | Velvetleaf plant response rating (velvetleaf; [8]): 3 | Wheat plant response rating (wheat; [2]): 0 | Wheat plant response rating (0 to 10 scale) (wheat; [3]): 0 | Wheat plant response rating (wheat; [4]): 0 | Wheat plant response rating (wheat; [5]): 0 | Plant response rating, Wheat (wheat; [7]): 0 | Wheat plant response rating (wheat; [8]): 3 | Wild oats plant response rating (wild oat; [2]): 0 | Wild oats plant response rating (0 to 10 scale) (wild oat; [3]): 0 | Wild oats plant response rating (wild oat; [4]): 0 | Wild oats plant response rating (wild oat; [5]): 0 | Plant response rating, Wild oats (wild oat; [7]): 0 | Wild oats plant response rating (wild oat; [8]): 0 | Nutsedge plant response rating (purple nutsedge; [1]): 0 | Nutsedge plant response rating (purple nutsedge; [2]): 0 | Nutsedge plant response rating (0 to 10 scale) (purple nutsedge; [3]): 0 | Nutsedge plant response rating (purple nutsedge; [4]): 3 | Nutsedge plant response rating (purple nutsedge; [5]): 3 | Nutsedge plant response rating (purple nutsedge; [6]): 0 | Plant response rating, Nutsedge (purple nutsedge; [7]): 0 | Nutsedge plant response rating (purple nutsedge; [8]): 0
